Reference: PubChem BioAssay AID179 (DTP/NCI, 2004)
“And” between values parts separate entries of the source, which are not always exact repeats. Equal values may be shown once. The source made the active and inactive calls.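 How the source made its calls: active means compounds giving half or more protection of infected cells from virus-caused growth loss, again on retest; inactive means the rest.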 Where a SMILES comes first, the peptide text is derived from it. [ ]: non-standard residue; d: D form. The star is where a group is joined. ξ: configuration not given here. ξW = NC(Cc1c[nH]c2ccccc12)C(=O)O; X18 = O=C(O)[C@H]1CCC[C@H]1N*; ξF = NC(Cc1ccccc1)C(=O)O; Boc = CC(C)(C)OC(=O)*; ξK = NCCCCC(N)C(=O)O; ξT = CC(O)C(N)C(=O)O; tBu = CC(C)(C)*

Test system: CEM cells HIV-1 protection, formazan growth assay
Assay: NCI AIDS Antiviral Assay
Conditions: for IC50: measured here: growth of uninfected CEM cells
How it was run: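 Five concentrations of each compound were applied to infected and uninfected human CEM cells. Protection from HIV-1 was judged from growth measured with a soluble formazan assay.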

COc1c(C(=O)O)oc2c(OC)cccc12
outcome: inactive

CCCC[N+](CCCC)(CCCC)C1=C([O-])C(F)(F)C1=O
EC50: > 200 µM
IC50: > 200 µM

COc1ccc(N2C(=O)[C@@H]3[C@H](C2=O)c2[nH]c4ccccc4c2C2CCC(C(C)(C)C)C[C@@H]23)cc1 (some centres not stated)
EC50: > 28.2 µM
IC50: > 28.2 µM

CSc1n[nH]c2c1c(C)nn2-c1ccccc1
EC50: > 200 µM
IC50: 95.5 µM

COc1c(C(=O)/C(=N/Nc2ccccc2)C(C)=O)c(O)c(OC)c2occc12
EC50: > 200 µM
IC50: 38 µM

CCOC(=O)C(=CN1CC(=O)NC1=S)C(=O)OCC
EC50: > 200 µM
IC50: > 200 µM

Nc1nnn(N)n1
EC50: > 200 µM
IC50: > 200 µM

Cc1ccc(N/C(Sc2ccccc2)=C(/C(Cl)=C(Cl)Cl)[N+](=O)[O-])c(C)c1
EC50: > 200 µM
IC50: 27.5 µM

CCOC(=O)C(CC/C=C\c1ccccc1)N1CCC[C@H]1C(=O)OC (some centres not stated)
outcome: inactive

CCCCC1(C(=O)OCC)SCCCS1
EC50: > 75.9 µM
IC50: > 75.9 µM

N#CSCc1cccc(Nc2cc(=O)[nH]c(=O)[nH]2)c1
EC50: > 200 µM
IC50: 25.7 µM

CC1=NN(C(=O)c2ccc(Cl)cc2)C(=O)/C1=C/c1ccc(O)cc1
EC50: > 15.1 µM
IC50: > 15.1 µM

CC1(C)C(O)C[C@]23CCC[C@](C)(C[C@@H](O)C12)C3 (some centres not stated)
EC50: > 200 µM
IC50: > 200 µM

CCOC(=O)CC1C(C(=O)OCC)=Cn2c([nH]c3cccc4cccc2c43)=C1C(=O)OCC (configuration not stated)
EC50: > 200 µM
IC50: 30.9 µM

C=CNC(=S)N/C=C(\C#N)S(=O)(=O)c1ccc(C)cc1
EC50: > 200 µM
IC50: > 200 µM

CC[C@@]12C=CC(=S)N(CCSc3ccccc3)[C@@H]1c1c(n(S(=O)(=O)c3ccc(OC)cc3)c3ccccc13)CC2
EC50: > 126 µM
IC50: > 126 µM

COc1ccc(SCc2cc(OCc3ccccc3)c(OCc3ccccc3)c(OCc3ccccc3)c2)cc1
EC50: > 200 µM
IC50: > 200 µM

CN(C)CCCN=C(N)CSP(=O)(O)O
EC50: > 200 µM
IC50: 32.4 µM

CCOC(=O)CCC(NC(=O)c1ccc(NCc2ccc3nc(-c4ccccc4)c(Cl)nc3c2)cc1)C(=O)OCC (configuration not stated)
EC50: > 4.79 µM
IC50: > 4.79 µM

CSc1nc(NC2OCC(O)C(O)C2O)cc(=O)n1C (configuration not stated)
outcome: inactive

C=C1c2nc3ccccc3n2C=C(c2ccc(C)cc2)N1c1ccccc1
EC50: > 200 µM
IC50: 1.35 µM

CCC[CH2][Sn]([CH2]CCC)([O]c1cccc2cccnc12)[O]c1cccc2cccnc12
outcome: inactive

CC(OC(C)(C)C)C(NC(=O)C(CCCCNC(=O)OC(C)(C)C)NC(=O)C(Cc1c[nH]c2ccccc12)NC(=O)C(N)Cc1ccccc1)C(=O)NC(Cc1ccccc1)C(=O)N[C@@H]1CCC[C@@H]1C(=O)O (some centres not stated) (H-[ξF][ξW][ξK](Boc)[ξT](tBu)[ξF]-X18)
outcome: inactive

C1=CC2/C=C\c3[nH]c4ccccc4c3CCN(C1)C2 (configuration not stated)
EC50: > 162 µM
IC50: 75.9 µM

c1ccc2c(c1)SCCCS2
EC50: > 39.8 µM
IC50: > 39.8 µM

CN1C(=O)C(C)(C)C2(SC(C)(C)C2(C)C)N(C)C1=S (configuration not stated)
EC50: > 24 µM
IC50: > 24 µM

Cc1cn(C(C)OCCN(O)C(N)=O)c(=O)[nH]c1=O (configuration not stated)
outcome: inactive

O=C(c1ccc(Br)cc1)n1c2ccc(Br)cc2c2nc3ccccc3nc21
EC50: > 50.1 µM
IC50: > 50.1 µM

O=C1C2C(C(=O)N1OS(=O)(=O)c1ccccc1)N(Cc1ccccc1)C(=O)N2Cc1ccccc1 (configuration not stated)
EC50: > 7.59 µM
IC50: > 7.59 µM

c1ccc(SC2(Sc3ccccc3)CCCCCCCCCCC2)cc1
EC50: > 200 µM
IC50: 166 µM

Cc1cc(C)c(S(=O)(=O)N(CCCCCN)OCCCN)c(C)c1
EC50: > 200 µM
IC50: 30.2 µM

O=C1NCc2ccccc2S(=O)(=O)n2cccc21
EC50: > 200 µM
IC50: 120 µM

CC1(C)COC2C(N(Cc3ccccc3)Cc3ccccc3)C(=O)N21 (configuration not stated)
outcome: inactive

O=[N+]([O-])c1ccc2nc(Nc3ccccc3)c(Nc3ccccc3)nc2c1
outcome: inactive

c1ccc(SSc2ccc3ccccc3c2)cc1
EC50: > 200 µM
IC50: 9.33 µM

Cc1nc2c(nc1C)C(=O)C(N)=CC2=O
outcome: inactive

COc1cc(/C=N\NS(=O)(=O)c2ccc([N+](=O)[O-])cc2)c([N+](=O)[O-])cc1OC
EC50: > 33.1 µM
IC50: > 33.1 µM

CCCCCCCCCCCCCCCCCC(=O)OCC(COC1OC(CS(=O)(=O)O)C(O)C(O)C1O)OC(=O)CCCCCCCCCCCCCCCCC (configuration not stated)
EC50: 11.7 µM and > 20.4 µM
outcome: inactive
IC50: 138 µM and > 20.4 µM

COc1cc2c(cc1OC)C13CC(=O)N(C(C)=O)N1CCCN3C2=O (configuration not stated)
EC50: > 145 µM
IC50: > 145 µM

CC(C)(C)OC(=O)N(CCCCNC(=O)c1ccccc1)CCCNC(=O)c1ccccc1
EC50: > 200 µM
IC50: 45.7 µM

O=C(OCc1ccccc1)N1CC[C@@H](O)[C@@H](CNC23CC4CC(CC(C4)C2)C3)C1
EC50: > 631 µM
IC50: 23.4 µM

CC(=O)Nc1ccc(-n2[nH]c(=O)n(C)c2=O)cc1
EC50: > 100 µM
IC50: > 100 µM

C#CCN(N=O)C(=O)NC(CCCNC(=O)OCc1ccccc1)C(=O)OCc1ccccc1 (configuration not stated)
EC50: > 28.8 µM
IC50: > 28.8 µM

CCOC(=O)C1=C(C)N(C2OC(COC(C)=O)C(OC(C)=O)C(OC(C)=O)C2OC(C)=O)C(=O)NC1c1ccccc1 (configuration not stated)
EC50: > 31.6 µM
IC50: > 31.6 µM

NCCCNc1ccc2c(c1)[n+]([O-])c1ccccc1[n+]2[O-]
EC50: > 437 µM
IC50: 10.2 µM
